Data taken from the supplement of paper PMC10307832.

Tests used:
Test in all cases: relative viability (nuclei count vs DMSO), 5 days (fraction); higher = more cells survive
ABC-1 = test system: ABC-1
Method in brief: (§1)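 Medians of duplicate plates are given as relative viability. That measure is the nuclei count in treated wells divided by the count in vehicle wells. Counts were taken on 4× images of lung cancer cell lines in 1536-well plates, 5 days after pin-tool dosing the day after seeding with one drug alone or a fixed anchor-drug dose plus five library-drug doses (not always all listed) in √10 steps.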

NCI-H1651 = test system: NCI-H1651
Method in brief: as §1

NCI-H3122 = test system: NCI-H3122
Method in brief: as §1

ChaGo-K-1 = test system: ChaGo-K-1
Method in brief: as §1

HCC-78 = test system: HCC-78
Method in brief: as §1

NCI-H460 = test system: NCI-H460
Method in brief: as §1

NCI-H1395 = test system: NCI-H1395
Method in brief: as §1

NCI-H2087 = test system: NCI-H2087
Method in brief: as §1

PC-3 [JPC-3] = test system: PC-3 [JPC-3]
Method in brief: as §1

NCI-H2405 = test system: NCI-H2405
Method in brief: as §1

NCI-H1755 = test system: NCI-H1755
Method in brief: as §1

HCC-366 = test system: HCC-366
Method in brief: as §1

NCI-H1734 = test system: NCI-H1734
Method in brief: as §1

LOU-NH91 = test system: LOU-NH91
Method in brief: as §1

NCI-H1944 = test system: NCI-H1944
Method in brief: as §1

NCI-H2170 = test system: NCI-H2170
Method in brief: as §1

NCI-H1793 = test system: NCI-H1793
Method in brief: as §1

LC-2-ad = test system: LC-2-ad
Method in brief: as §1

LU99A = test system: LU99A
Method in brief: as §1

CAL-12T = test system: CAL-12T
Method in brief: as §1

RERF-LC-KJ = test system: RERF-LC-KJ
Method in brief: as §1

NCI-H2228 = test system: NCI-H2228
Method in brief: as §1

UMC-11 = test system: UMC-11
Method in brief: as §1

Oc1nc(-c2ccc(C(F)(F)F)cc2)nc2c1CSCC2 [XAV939] + COc1cc2c(Oc3ccc(NC(=O)C4(C(=O)Nc5ccc(F)cc5)CC4)cc3F)ccnc2cc1OCCCN1CCOCC1 [Foretinib] (partner 0.25 µM)
relative viability (ABC-1; first compound 0.08 µM): 1.16
relative viability (ABC-1; first compound 0.253 µM): 0.732
relative viability (ABC-1; first compound 0.8 µM): 0.935
relative viability (ABC-1; first compound 2.53 µM): 0.635
relative viability (NCI-H1651; first compound 0.08 µM): 0.786
relative viability (NCI-H1651; first compound 0.253 µM): 0.705
relative viability (NCI-H1651; first compound 0.8 µM): 0.826
relative viability (NCI-H1651; first compound 2.53 µM): 0.768
relative viability (NCI-H3122; first compound 0.08 µM): 0.926
relative viability (NCI-H3122; first compound 0.253 µM): 0.918
relative viability (NCI-H3122; first compound 0.8 µM): 0.942
relative viability (NCI-H3122; first compound 2.53 µM): 0.909
relative viability (ChaGo-K-1; first compound 0.08 µM): 0.874
relative viability (ChaGo-K-1; first compound 0.253 µM): 1.01
relative viability (ChaGo-K-1; first compound 0.8 µM): 0.812
relative viability (ChaGo-K-1; first compound 2.53 µM): 0.773
relative viability (HCC-78; first compound 0.08 µM): 0.591
relative viability (HCC-78; first compound 0.253 µM): 0.552
relative viability (HCC-78; first compound 0.8 µM): 0.552
relative viability (HCC-78; first compound 2.53 µM): 0.506
relative viability (NCI-H460; first compound 0.08 µM): 1.01
relative viability (NCI-H460; first compound 0.253 µM): 0.926
relative viability (NCI-H460; first compound 0.8 µM): 0.999
relative viability (NCI-H460; first compound 2.53 µM): 0.922
relative viability (NCI-H1395; first compound 0.08 µM): 1.07
relative viability (NCI-H1395; first compound 0.253 µM): 0.783
relative viability (NCI-H1395; first compound 0.8 µM): 1
relative viability (NCI-H1395; first compound 2.53 µM): 0.961
relative viability (NCI-H2087; first compound 0.08 µM): 1.04
relative viability (NCI-H2087; first compound 0.253 µM): 1.03
relative viability (NCI-H2087; first compound 0.8 µM): 1.02
relative viability (NCI-H2087; first compound 2.53 µM): 0.677
relative viability (PC-3 [JPC-3]; first compound 0.08 µM): 1.03
relative viability (PC-3 [JPC-3]; first compound 0.253 µM): 0.854
relative viability (PC-3 [JPC-3]; first compound 0.8 µM): 1.02
relative viability (PC-3 [JPC-3]; first compound 2.53 µM): 0.951
relative viability (NCI-H2405; first compound 0.08 µM): 0.99
relative viability (NCI-H2405; first compound 0.253 µM): 1.01
relative viability (NCI-H2405; first compound 0.8 µM): 1.03
relative viability (NCI-H2405; first compound 2.53 µM): 1.01
relative viability (NCI-H1755; first compound 0.08 µM): 0.891
relative viability (NCI-H1755; first compound 0.253 µM): 0.787
relative viability (NCI-H1755; first compound 0.8 µM): 0.815
relative viability (NCI-H1755; first compound 2.53 µM): 0.809
relative viability (HCC-366; first compound 0.08 µM): 0.91
relative viability (HCC-366; first compound 0.253 µM): 0.877
relative viability (HCC-366; first compound 0.8 µM): 0.933
relative viability (HCC-366; first compound 2.53 µM): 0.941
relative viability (NCI-H1734; first compound 0.08 µM): 0.953
relative viability (NCI-H1734; first compound 0.253 µM): 0.784
relative viability (NCI-H1734; first compound 0.8 µM): 0.913
relative viability (NCI-H1734; first compound 2.53 µM): 0.829
relative viability (LOU-NH91; first compound 0.08 µM): 0.932
relative viability (LOU-NH91; first compound 0.253 µM): 0.918
relative viability (LOU-NH91; first compound 0.8 µM): 0.903
relative viability (LOU-NH91; first compound 2.53 µM): 0.891
relative viability (NCI-H1944; first compound 0.08 µM): 0.942
relative viability (NCI-H1944; first compound 0.253 µM): 0.842
relative viability (NCI-H1944; first compound 0.8 µM): 0.814
relative viability (NCI-H1944; first compound 2.53 µM): 0.704
relative viability (NCI-H2170; first compound 0.08 µM): 1.03
relative viability (NCI-H2170; first compound 0.253 µM): 1.01
relative viability (NCI-H2170; first compound 0.8 µM): 0.979
relative viability (NCI-H2170; first compound 2.53 µM): 0.864
relative viability (NCI-H1793; first compound 0.08 µM): 0.846
relative viability (NCI-H1793; first compound 0.253 µM): 0.558
relative viability (NCI-H1793; first compound 0.8 µM): 0.63
relative viability (NCI-H1793; first compound 2.53 µM): 0.454
relative viability (LC-2-ad; first compound 0.08 µM): 1
relative viability (LC-2-ad; first compound 0.253 µM): 0.854
relative viability (LC-2-ad; first compound 0.8 µM): 0.911
relative viability (LC-2-ad; first compound 2.53 µM): 0.843
relative viability (LU99A; first compound 0.08 µM): 0.794
relative viability (LU99A; first compound 0.253 µM): 0.815
relative viability (LU99A; first compound 0.8 µM): 0.744
relative viability (LU99A; first compound 2.53 µM): 0.724
relative viability (CAL-12T; first compound 0.08 µM): 1.06
relative viability (CAL-12T; first compound 0.253 µM): 1.06
relative viability (CAL-12T; first compound 0.8 µM): 1.15
relative viability (CAL-12T; first compound 2.53 µM): 1.09
relative viability (RERF-LC-KJ; first compound 0.08 µM): 0.781
relative viability (RERF-LC-KJ; first compound 0.253 µM): 0.738
relative viability (RERF-LC-KJ; first compound 0.8 µM): 0.792
relative viability (RERF-LC-KJ; first compound 2.53 µM): 0.681
relative viability (NCI-H2228; first compound 0.08 µM): 0.98
relative viability (NCI-H2228; first compound 0.253 µM): 0.874
relative viability (NCI-H2228; first compound 0.8 µM): 0.91
relative viability (NCI-H2228; first compound 2.53 µM): 0.847
relative viability (UMC-11; first compound 0.08 µM): 1.13
relative viability (UMC-11; first compound 0.253 µM): 0.873
relative viability (UMC-11; first compound 0.8 µM): 0.978
relative viability (UMC-11; first compound 2.53 µM): 0.8
